In patent publication US7138361B2, “Herbicidal heterocycles” (E. I. du Pont de Nemours and Company, priority 2000, dated 2006):

Assays:
Type in all cases: in vivo
[1] = tested on: Surinam grass (Brachiaria decumbens); assay: Test B preemergence
Method in brief: (§1)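 Ratings on a 0 to 100 visual scale (100 complete control) compare treated plants with controls 13 to 15 days after application. Treatments were pre- or postemergence sprays of compound in non-phytotoxic solvent with surfactant.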

[2] = tested on: barnyardgrass (Echinochloa crus-galli); assay: Test B preemergence
Method in brief: as §1

[3] = tested on: cocklebur (Xanthium strumarium); assay: Test B preemergence
Method in brief: as §1

corn (Zea mays) = assay: Test B preemergence
Method in brief: as §1

[4] = tested on: crabgrass (Digitaria sanguinalis); assay: Test B preemergence
Method in brief: as §1

[5] = tested on: giant foxtail (Setaria faberii); assay: Test B preemergence
Method in brief: as §1

[6] = tested on: lambsquarters (Chenopodium album); assay: Test B preemergence
Method in brief: as §1

[7] = tested on: morning glory (Ipomoea hederacea); assay: Test B preemergence
Method in brief: as §1

[8] = tested on: pigweed (Amaranthus retroflexus); assay: Test B preemergence
Method in brief: as §1

rice (Oryza saliva) = assay: Test B preemergence
Method in brief: as §1

[9] = tested on: velvetleaf (Abutilon theophrasti); assay: Test B preemergence
Method in brief: as §1

Sunflower [10] = assay: Test C preemergence
[11] = tested on: Surinam grass (Brachiaria decumbens); assay: Test C preemergence; details: for Plant response rating (0 to 100), Surinam grass: visual evaluation after 12 to 14 days
Method in brief: (§2)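 Visual 0–100 rating vs controls (0 = no effect, 100 = complete control) at 12–14 d, greenhouse. Compounds in non-phytotoxic solvent + surfactant; pre: sprayed after seeding; post: 1–4-leaf plants, 2–18 cm.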

[12] = tested on: bermudagrass (Cynodon dactylon); assay: Test C preemergence; details: for Plant response rating (0 to 100 where 0 is no effect and 100 is complete control), Bermudagrass: visual evaluation after 12 to 14 days
Method in brief: as §2

[13] = tested on: cocklebur (Xanthium strumarium); assay: Test C preemergence; details: for Plant response rating (0 to 100), Cocklebur: visual evaluation after 12 to 14 days
Method in brief: as §2

[14] = tested on: common ragweed (Ambrosia elatior); assay: Test C preemergence; details: for Plant response rating (0 to 100), Ragweed, Common: visual evaluation after 12 to 14 days
Method in brief: as §2

[15] = tested on: crabgrass (Digitaria sanguinalis); assay: Test C preemergence; details: for Plant response rating (0 to 100), Crabgrass: visual evaluation after 12 to 14 days
Method in brief: as §2

[16] = tested on: giant foxtail (Setaria faberii); assay: Test C preemergence; details: for Plant response rating (0 to 100), Foxtail, Giant: visual evaluation after 12 to 14 days
Method in brief: as §2

[17] = tested on: goosegrass (Eleusine indica); assay: Test C preemergence; details: for Plant response rating (0 to 100), Goosegrass: visual evaluation after 12 to 14 days
Method in brief: as §2

[18] = tested on: morningglory (Ipomoea hederacea); assay: Test C preemergence; details: for Plant response rating (0 to 100), Morningglory: visual evaluation after 12 to 14 days
Method in brief: as §2

[19] = tested on: velvetleaf (Abutilon theophrasti); assay: Test C preemergence; details: for Plant response rating (0 to 100), Velvetleaf: visual evaluation after 12 to 14 days
Method in brief: as §2

Sunflower [20] = assay: Test C preemergence; details: visual evaluation after 12 to 14 days
[21] = Preemergence, Rate 500 g/ha, scale 0 to 100, 0 no effect, 100 complete control
[22] = preemergence, Rate 125 g/ha, scale of 0 to 100 where 0 is no effect and 100 is complete control, 13 to 15 days
[23] = Rate 125 g/ha, scale 0 to 100, 0 no effect, 100 complete control
[24] = Rate 62 g/ha, scale 0 to 100, 0 no effect, 100 complete control
[25] = preemergence, Rate 250 g/ha, scale 0 to 100, 0 no effect, 100 complete control
[26] = Preemergence, Rate 500 g/ha, scale 0 to 100
[27] = preemergence, Rate 125 g/ha, scale 0 to 100, 0 no effect, 100 complete control

CC(C)(C)c1ccn(C2CCN(c3ccc(F)c(Br)c3)C2=O)n1 (stereo not shown) [Compound 75]
10: Plant response rating, Surinam grass [11, 24]
40: Plant response rating, Surinam grass [11, 23]
60: Plant response rating, Surinam grass [1, 22] | Plant response rating (0 to 100), Surinam grass ([11]; preemergence, Rate 250 g/ha) | Plant response rating (0 to 100), Surinam grass ([11]; preemergence, Rate 500 g/ha) | Plant response rating (0 to 100), Ragweed, Common ([14]; preemergence, Rate 500 g/ha)
0: Plant response rating, Corn (corn (Zea mays); [22]) | Plant response rating, Morningglory [7, 21] | Plant response rating, Morningglory [7, 22] | Plant response rating, Sunflower (Sunflower [10]; [23]) | Plant response rating, Cocklebur [13, 24] | Plant response rating, Cocklebur [13, 23] | Plant response rating (0 to 100), Cocklebur ([13]; preemergence, Rate 250 g/ha) | Plant response rating (0 to 100), Cocklebur ([13]; preemergence, Rate 500 g/ha) | Plant response rating, Ragweed, Common [14, 23] | Plant response rating, Ragweed, Common [14, 25] | Plant response rating, Morningglory [18, 24] | Plant response rating, Morningglory [18, 23] | Plant response rating (0 to 100), Morningglory ([18]; preemergence, Rate 500 g/ha) | Plant response rating, Morningglory [18, 25] | Plant response rating, Velvetleaf [19, 23] | Plant response rating (0 to 100), Velvetleaf ([19]; preemergence, Rate 500 g/ha) | Plant response rating, Velvetleaf [19, 25]
90: Plant response rating, Crabgrass [15, 24] | Plant response rating, Foxtail, Giant [16, 24] | Plant response rating, Goosegrass [17, 24]
70: Plant response rating, Cocklebur [3, 21] | Plant response rating, Rice (rice (Oryza saliva); [21]) | Plant response rating, Velvetleaf [9, 21] | Plant response rating (0 to 100), Foxtail, Giant ([16]; preemergence, Rate 250 g/ha)
50: Plant response rating, Rice (rice (Oryza saliva); [22]) | Plant response rating, Velvetleaf [9, 22] | Plant response rating (0 to 100), Sunflower (Sunflower [20]; Rate 500 g/ha)
20: Plant response rating, Corn (corn (Zea mays); [21])
30: Plant response rating, Cocklebur [3, 22]
100: Plant response rating, Surinam grass [1, 21] | Plant response rating, Barnyardgrass [2, 21] | Plant response rating, Barnyardgrass [2, 22] | Plant response rating, Crabgrass [4, 21] | Plant response rating, Crabgrass [4, 22] | Plant response rating, Foxtail, Giant [5, 21] | Plant response rating, Foxtail, Giant [5, 22] | Plant response rating, Lambsquarters [6, 21] | Plant response rating, Lambsquarters [6, 22] | Plant response rating, Pigweed [8, 21] | Plant response rating, Pigweed [8, 22] | Plant response rating, Bermudagrass [12, 24] | Plant response rating, Bermudagrass [12, 23] | Plant response rating (0 to 100 where 0 is no effect and 100 is complete control), Bermudagrass ([12]; preemergence, Rate 250 g/ha) | Plant response rating (0 to 100 where 0 is no effect and 100 is complete control), Bermudagrass ([12]; preemergence, Rate 500 g/ha) | Plant response rating, Crabgrass [15, 23] | Plant response rating (0 to 100), Crabgrass ([15]; preemergence, Rate 250 g/ha) | Plant response rating (0 to 100), Crabgrass ([15]; preemergence, Rate 500 g/ha) | Plant response rating, Foxtail, Giant [16, 23] | Plant response rating (0 to 100), Foxtail, Giant ([16]; preemergence, Rate 500 g/ha) | Plant response rating, Goosegrass [17, 23] | Plant response rating (0 to 100), Goosegrass ([17]; preemergence, Rate 250 g/ha) | Plant response rating (0 to 100), Goosegrass ([17]; preemergence, Rate 500 g/ha)

O=C1C(n2ccc(C3CCCCC3)n2)SCN1c1cccc(C(F)(F)F)c1 (stereo not shown) [Compound 52]
100: Plant response rating, Barnyardgrass [2, 21] | Plant response rating, Crabgrass [4, 21] | Plant response rating, Crabgrass [4, 22] | Plant response rating, Foxtail, Giant [5, 21] | Plant response rating, Lambsquarters [6, 21] | Plant response rating, Lambsquarters [6, 22] | Plant response rating, Bermudagrass [12, 26] | Plant response rating, Bermudagrass [12, 24] | Plant response rating (0 to 100 where 0 is no effect and 100 is complete control), Bermudagrass ([12]; preemergence, Rate 250 g/ha) | Plant response rating, Bermudagrass [12, 27] | Plant response rating, Crabgrass [15, 26] | Plant response rating (0 to 100), Crabgrass ([15]; preemergence, Rate 250 g/ha) | Plant response rating, Crabgrass [15, 27] | Plant response rating, Goosegrass [17, 26] | Plant response rating (0 to 100), Goosegrass ([17]; preemergence, Rate 250 g/ha)
20: Plant response rating, Corn (corn (Zea mays); [21]) | Plant response rating, Surinam grass [11, 27]
70: Plant response rating, Foxtail, Giant [16, 27]
0: Plant response rating, Surinam grass [1, 21] | Plant response rating, Surinam grass [1, 22] | Plant response rating, Barnyardgrass [2, 22] | Plant response rating, Cocklebur [3, 21] | Plant response rating, Cocklebur [3, 22] | Plant response rating, Corn (corn (Zea mays); [22]) | Plant response rating, Morningglory [7, 21] | Plant response rating, Morningglory [7, 22] | Plant response rating, Pigweed [8, 22] | Plant response rating, Rice (rice (Oryza saliva); [21]) | Plant response rating, Rice (rice (Oryza saliva); [22]) | Plant response rating, Velvetleaf [9, 21] | Plant response rating, Surinam grass [11, 24] | Plant response rating, Cocklebur [13, 24] | Plant response rating, Cocklebur [13, 27] | Plant response rating, Ragweed, Common [14, 27] | Plant response rating (0 to 100), Morningglory ([18]; preemergence, Rate 250 g/ha) | Plant response rating, Morningglory [18, 27] | Plant response rating, Velvetleaf [19, 26] | Plant response rating (0 to 100), Velvetleaf ([19]; preemergence, Rate 250 g/ha) | Plant response rating, Velvetleaf [19, 27] | Plant response rating (0 to 100), Sunflower (Sunflower [20]; Rate 250 g/ha)
90: Plant response rating, Foxtail, Giant [5, 22] | Plant response rating, Crabgrass [15, 24] | Plant response rating, Goosegrass [17, 24] | Plant response rating, Goosegrass [17, 27]
40: Plant response rating (0 to 100), Ragweed, Common ([14]; preemergence, Rate 250 g/ha)
30: Plant response rating, Pigweed [8, 21] | Plant response rating (0 to 100), Surinam grass ([11]; preemergence, Rate 250 g/ha) | Plant response rating, Cocklebur [13, 26] | Plant response rating, Foxtail, Giant [16, 26] | Plant response rating, Morningglory [18, 26]
60: Plant response rating, Foxtail, Giant [16, 24]
50: Plant response rating, Sunflower (Sunflower [10]; Rate 500 g/ha, scale 0 to 100) | Plant response rating, Surinam grass [11, 26] | Plant response rating, Ragweed, Common [14, 26]
